Data: patent publication US10117944B2, “Targeted therapeutics” (Madrigal Pharmaceuticals, Inc., priority 2014, dated 2018)
Where “and” joins values, the source holds several entries; their conditions need not be identical. Identical values can stand only once. Like-named read-outs stand apart in the source and are kept apart here.

Legend:
[1] = Stability of SDC-TRAPs in mouse plasma; type: in vitro ADME; conditions: 37° C.
Procedure: SDC-TRAPs were incubated in mouse plasma for 1 h at 37° C. and assayed for integrity at 0, 0.25, 0.5 and 1 h to assess the stability of the SDC-TRAP, e.g., as compared to the effector and targeting compounds. Compound stability was determined using […].

HER2 = HER2 degradation assay with BT-474 cell line; type: cell-based, human; conditions: BT-474 cells, overnight incubation
Procedure: BT-474 cells (human breast cancer cell line ATCC HTB-20) were obtained from ATCC and seeded into 12-well tissue culture plates at 0.2×10^6/1.8 mL/well. The cells were incubated for more than 6 hours at 37° C. in DMEM+10% FBS, +1% P/S, +1.5 g/L sodium bicarbonate. […] The DMSO final concentration was 0.2%. Cells were incubated overnight at 37° C. in 5% CO2.
Media was decanted from the plate, cells were washed 1× in PBS. 400 μL trypsin (EDTA) per well was added, and the cells were incubated for 2 to 3 minutes. Cells were collected into FACS tubes containing 1 ml culture medium to neutralize the trypsin and were centrifuged for 5 minutes at 1200 rpm. Supernatant was decanted and the cells were resuspended in 5 μL FITC (anti HER2/nu)/200 μL staining buffer (1×PBS+1% FBS+0.05% Sodium Azide)/tube. Controls were 5 μL IgG isotype control and staining buffer only. Tubes were incubated for 30 minutes in the dark at room temperature. 1 mL staining buffer was added to each tube and the tubes were centrifuged for 6 minutes at 1200 rpm. The supernatant was decanted and 300 μL staining buffer was added to each tube, which was stored at 4° C. for FACS (cytometer) analysis. The cytometer readout was normalized and the potency of each compound was evaluated with IC50 calculated with XLfit™ software.

[2] = Tissue distribution of ganetespib in female CD-1 nu/nu mice bearing RERF human NSCLC xenografts; type: in vivo; conditions: IV 50 mg/kg; for concentration at 5 min / concentration at 24 h / concentration at 6 h: female, CD-1 nu/nu, mouse
Source text: To confirm the distribution of ganetespib in blood, livers, kidneys, brains, hearts, lungs and tumors after IV administration of ganetespib to female CD-1 nu/nu mice bearing RERF human NSCLC xenografts, and to examine metabolic profiles of ganetespib in plasma, red blood cells, and above tissues.
Test Articles: ganetespib
Animals: female CD-1 nu/nu mice bearing RERF human NSCLC xenografts (N=3/group)
Formulation: 10% DMSO, 18% Cremophor RH40, 3.6% dextrose solution (DRD)
Bleeding time points: 5 min, 6, 24 hr
Collected tissues: blood (plasma and red blood cells (RBC)), liver, kidneys, brain, heart, lung, tumor
Protein precipitation: 50 μL of 10 times diluted plasma or RBC+150 μL ACN (10 mM NH4OAc), vortexed and centrifuged at 10000 rpm for 8 min; 150 μL supernatant+150 μL water (10 mM NH4OAc)
Protein precipitation: 100 μL homogenized tissue (1:3 tissue: PBS buffer)+100 μL ACN (10 mM NH4OAc), vortexed and centrifuged at 10000 rpm for 8 min

CC(C)C[C@H](NC(=O)[C@H](Cc1ccccc1)NC(=O)c1cnccn1)B1OC(C)(C)C(C)(c2ccc(C(=O)N3CCN(Cc4ccc(-n5c(O)nnc5-c5cc(C(C)C)c(O)cc5O)cc4)CC3)cc2)O1 (stereo partly drawn) [SDC-TRAP-0236, N-((2S)-1-(((1R)-1-(4-(4-(4-(4-(3-(2,4-dihydroxy-5-isopropylphenyl)-5-hydroxy-4H-1,2,4-triazol-4-yl)benzyl)piperazine-1-carbonyl)phenyl)-4,5,5-trimethyl-1,3,2-dioxaborolan-2-yl)-3-methylbutyl)amino)-1-oxo-3-phenylpropan-2-yl)pyrazine-2-carboxamide]
% Remaining (1 h) [1]: 25.5% | IC50 (HER2): 710 nM

CC(C)C[C@H](NC(=O)[C@H](Cc1ccccc1)NC(=O)c1cnccn1)B1OC(C)(C)C(C)(c2ccc(C(=O)N3CCC(CCn4ccc5cc(-n6c(O)nnc6-c6cc(C(C)C)c(O)cc6O)ccc54)CC3)cc2)O1 (stereo partly drawn) [SDC-TRAP-0237, N-((2S)-1-(((1R)-1-(4-(4-(4-(2-(5-(3-(2,4-dihydroxy-5-isopropylphenyl)-5-hydroxy-4H-1,2,4-triazol-4-yl)-1H-indol-1-yl)ethyl)piperidine-1-carbonyl)phenyl)-4,5,5-trimethyl-1,3,2-dioxaborolan-2-yl)-3-methylbutyl)amino)-1-oxo-3-phenylpropan-2-yl)pyrazine-2-carboxamide]
% Remaining (1 h) [1]: 84.2% | IC50 (HER2): > 5000 nM

CC(C)C[C@H](NC(=O)[C@H](Cc1ccccc1)NC(=O)c1cnccn1)B1OC(C)(C)C(C)(c2ccc(C(=O)N3CCN(c4ccc(-n5c(O)nnc5-c5cc(C(C)C)c(O)cc5O)cc4)CC3)cc2)O1 (stereo partly drawn) [SDC-TRAP-0238, N-((2S)-1-(((1R)-1-(4-(4-(4-(4-(3-(2,4-dihydroxy-5-isopropylphenyl)-5-hydroxy-4H-1,2,4-triazol-4-yl)phenyl)piperazine-1-carbonyl)phenyl)-4,5,5-trimethyl-1,3,2-dioxaborolan-2-yl)-3-methylbutyl)amino)-1-oxo-3-phenylpropan-2-yl)pyrazine-2-carboxamide]
% Remaining (1 h) [1]: 24.0% | IC50 (HER2): > 5000 nM

CC(C)C[C@H](NC(=O)[C@H](Cc1ccccc1)NC(=O)c1cnccn1)B1OC(C)(C)C(C)(c2ccc(C(=O)N3CCc4ccc(-n5c(O)nnc5-c5cc(C(C)C)c(O)cc5O)cc4C3)cc2)O1 (stereo partly drawn) [SDC-TRAP-0239, N-((2S)-1-(((1R)-1-(4-(4-(7-(3-(2,4-dihydroxy-5-isopropylphenyl)-5-hydroxy-4H-1,2,4-triazol-4-yl)-1,2,3,4-tetrahydroisoquinoline-2-carbonyl)phenyl)-4,5,5-trimethyl-1,3,2-dioxaborolan-2-yl)-3-methylbutyl)amino)-1-oxo-3-phenylpropan-2-yl)pyrazine-2-carboxamide]
% Remaining (1 h) [1]: 35.8% | IC50 (HER2): > 5000 nM

CCNC(=O)c1nnc(-c2cc(C(C)C)c(O)cc2O)n1-c1ccc2c(ccn2CCC2CCN(C(=O)c3ccc(C4(C)OB([C@H](CC(C)C)NC(=O)[C@H](Cc5ccccc5)NC(=O)c5cnccn5)OC4(C)C)cc3)CC2)c1 (stereo partly drawn) [SDC-TRAP-0240, N-((2S)-1-(((1R)-1-(4-(4-(4-(2-(5-(3-(2,4-dihydroxy-5-isopropylphenyl)-5-(ethylcarbamoyl)-4H-1,2,4-triazol-4-yl)-1H-indol-1-yl)ethyl)piperidine-1-carbonyl)phenyl)-4,5,5-trimethyl-1,3,2-dioxaborolan-2-yl)-3-methylbutyl)amino)-1-oxo-3-phenylpropan-2-yl)pyrazine-2-carboxamide]
% Remaining (1 h) [1]: 84.0% | IC50 (HER2): > 5000 nM

CC(C)C[C@H](NC(=O)[C@H](Cc1ccccc1)NC(=O)c1cnccn1)B1OC(C)(C)C(C)(c2ccc(C(=O)N3CCC(COc4ccc(-n5c(O)nnc5-c5cc(C(C)C)c(O)cc5O)cc4)CC3)cc2)O1 (stereo partly drawn) [SDC-TRAP-0242, N-((2S)-1-(((1R)-1-(4-(4-(4-((4-(3-(2,4-dihydroxy-5-isopropylphenyl)-5-hydroxy-4H-1,2,4-triazol-4-yl)phenoxy)methyl)piperidine-1-carbonyl)phenyl)-4,5,5-trimethyl-1,3,2-dioxaborolan-2-yl)-3-methylbutyl)amino)-1-oxo-3-phenylpropan-2-yl)pyrazine-2-carboxamide]
IC50 (HER2): 407 nM

CC(C)C[C@H](NC(=O)[C@H](Cc1ccccc1)NC(=O)c1cnccn1)B1O[C@H]2C[C@H]3C[C@H](C3(C)C)[C@@]2(CC(=O)N2CCC(CCn3ccc4cc(-n5c(O)nnc5-c5cc(C(C)C)c(O)cc5O)ccc43)CC2)O1 [SDC-TRAP-0245, N—((S)-1-(((R)-1-((3aR,4R,6R,7aS)-3a-(2-(4-(2-(5-(3-(2,4-dihydroxy-5-isopropylphenyl)-5-hydroxy-4H-1,2,4-triazol-4-yl)-1H-indol-1-yl)ethyl)piperidin-1-yl)-2-oxoethyl)-5,5-dimethylhexahydro-4,6-methanobenzo[d][1,3,2]dioxaborol-2-yl)-3-methylbutyl)amino)-1-oxo-3-phenylpropan-2-yl)pyrazine-2-carboxamide]
% Remaining (1 h) [1]: 44.2%

CCNC(=O)c1nnc(-c2cc(C(C)C)c(O)cc2O)n1-c1ccc(CN2CCC(C(=O)N3CCC4(CC3)OB([C@H](CC(C)C)NC(=O)[C@H](Cc3ccccc3)NC(=O)c3cnccn3)OC4(C)C)CC2)cc1 [SDC-TRAP-0252, N—((S)-1-(((R)-1-(8-(1-(4-(3-(2,4-dihydroxy-5-isopropylphenyl)-5-(ethylcarbamoyl)-4H-1,2,4-triazol-4-yl)benzyl)piperidine-4-carbonyl)-4,4-dimethyl-1,3-dioxa-8-aza-2-boraspiro[4.5]decan-2-yl)-3-methylbutyl)amino)-1-oxo-3-phenylpropan-2-yl)pyrazine-2-carboxamide]
% Remaining (1 h) [1]: 34%

CC(C)c1cc(-c2n[nH]c(=O)n2-c2ccc3c(ccn3C)c2)c(O)cc1O [ganetespib]
Mean concentration in plasma relative to that in RBC ([2]; 5 min): about 10 times | Concentration in tumor ([2]; 5 min, tumor): 2350 nM | Concentration in plasma ([2]; 24 hr, plasma): <LLOQ | concentration at 5 min ([2]; red blood cells, 5 min, RBC, read-out: Concentration in RBC): 6000 ng/mL and 16.5 µM | concentration at 24 h ([2]; red blood cells, 24 hr, RBC, read-out: Concentration in RBC): 3 ng/mL and 7 nM | concentration at 5 min ([2]; 5 min, brain, read-out: Concentration in brain): 530 nM and 190 ng/g | concentration at 5 min ([2]; 5 min, heart, read-out: Concentration in heart): 36.2 µM and 13200 ng/g | concentration at 5 min ([2]; 5 min, kidneys, read-out: Concentration in kidneys): 57.8 µM and 21100 ng/g | concentration at 5 min ([2]; 5 min, liver, read-out: Concentration in liver): 46.3 µM and 16900 ng/g | concentration at 5 min ([2]; 5 min, lung, read-out: Concentration in lung): 9240 ng/g and 25.4 µM | concentration at 5 min ([2]; 5 min, plasma, read-out: Concentration in plasma): 160 µM and 58400 ng/mL | concentration at 5 min ([2]; 5 min, tumor, read-out: Concentration in tumor): 860 ng/g and 2.35 µM | concentration at 6 h ([2]; brain, read-out: Concentration in brain): 70 ng/g and 180 nM | concentration at 6 h ([2]; heart, read-out: Concentration in heart): 50 ng/g and 130 nM | concentration at 6 h ([2]; kidneys, read-out: Concentration in kidneys): 60 ng/g and 150 nM | concentration at 6 h ([2]; liver, read-out: Concentration in liver): 140 ng/g and 390 nM | concentration at 6 h ([2]; lung, read-out: Concentration in lung): 50 ng/g and 140 nM | concentration at 6 h ([2]; plasma, read-out: Concentration in plasma): 120 nM and 40 ng/mL | concentration at 6 h ([2]; tumor, read-out: Concentration in tumor): 290 ng/g and 800 nM | concentration at 24 h ([2]; 24 hr, brain, read-out: Concentration in brain): 40 ng/g and 120 nM | concentration at 24 h ([2]; 24 hr, heart, read-out: Concentration in heart): 0 ng/g and 0 nM | concentration at 24 h ([2]; 24 hr, kidneys, read-out: Concentration in kidneys): 10 ng/g and 20 nM | concentration at 24 h ([2]; 24 hr, liver, read-out: Concentration in liver): 5 ng/g and 10 nM | concentration at 24 h ([2]; 24 hr, lung, read-out: Concentration in lung): 0 ng/g and 5 nM | concentration at 24 h ([2]; 24 hr, plasma, read-out: Plasma concentration (below the lower limit of quantitation)): < 2.5 nM | concentration at 24 h ([2]; 24 hr, tumor, read-out: Concentration in tumor): 850 nM and 310 ng/g
